Measurements published in US12365696B2, “Small-molecule focal adhesion kinase (FAK) inhibitors” (DANA-FARBER CANCER INSTITUTE, INC., priority 2019, dated 2025).
“And” between values parts separate entries of the source, which are not always exact repeats. Equal entries are not always repeated. Where two headings read alike, the source gives them in different places.

Legend:
IRAK3 = IRAK3 (Homo sapiens (Human), UniProt Q9Y616); assay: KINOMEscan; assay type: binding; settings: IRAK3, 10000 nM; read-out: Percent Control
MEK4 = MEK4 (Homo sapiens (Human), UniProt P45985); assay: KINOMEscan; assay type: binding; settings: MEK4, 10000 nM; read-out: Percent Control
PKAC-alpha = PKAC-alpha (Homo sapiens (Human), UniProt P17612); assay: KINOMEscan; assay type: binding; settings: 10000 nM, read-out: Percent Control
DYRK1B = DYRK1B (Homo sapiens (Human), UniProt Q9Y463); assay: KINOMEscan; assay type: binding; settings: 10000 nM, read-out: Percent Control
ERK3 = ERK3 (Homo sapiens (Human), UniProt Q16659); assay: KINOMEscan; assay type: binding; settings: ERK3, 10000 nM; read-out: Percent Control
MET = MET (Homo sapiens (Human), UniProt P08581); assay: KINOMEscan; assay type: binding; settings: 10000 nM, read-out: Percent Control
[1] = target: RSK1(Kin.Dom.1-N-terminal) (Homo sapiens (Human), UniProt Q15418); assay: KINOMEscan; assay type: binding; settings: 10000 nM, read-out: Percent Control
ACVR2A = ACVR2A (Homo sapiens (Human), UniProt P27037); assay: KINOMEscan; assay type: binding; settings: 10000 nM, read-out: Percent Control
PTK2 (FAK) = PTK2 (FAK) (Homo sapiens (Human), UniProt Q05397); assay: Z′-LYTE kinase assay (SelectScreen Biochemical Kinase Profiling), enzymatic IC50
PRKCQ = PRKCQ (Homo sapiens (Human), UniProt Q04759); assay: KINOMEscan; assay type: binding; settings: 10000 nM, read-out: Percent Control
DDR1 = DDR1 (Homo sapiens (Human), UniProt Q08345); assay: KINOMEscan; assay type: binding; settings: DDR1, 10000 nM; read-out: Percent Control
SGK = SGK (Homo sapiens (Human), UniProt O00141); assay: KINOMEscan; assay type: binding; settings: 10000 nM, read-out: Percent Control
PDPK1 = PDPK1 (Homo sapiens (Human), UniProt O15530); assay: KINOMEscan; assay type: binding; settings: PDPK1, 10000 nM; read-out: Percent Control
CAMKK1 = CAMKK1 (Homo sapiens (Human), UniProt Q8N5S9); assay: KINOMEscan; assay type: binding; settings: CAMKK1, 10000 nM; read-out: Percent Control
PCTK3 = PCTK3 (Homo sapiens (Human), UniProt Q07002); assay: KINOMEscan; assay type: binding; settings: PCTK3, 10000 nM; read-out: Percent Control
PKN1 = PKN1 (Homo sapiens (Human), UniProt Q16512); assay: KINOMEscan; assay type: binding; settings: PKN1, 10000 nM; read-out: Percent Control
CAMK4 = CAMK4 (Homo sapiens (Human), UniProt Q16566); assay: KINOMEscan; assay type: binding; settings: CAMK4, 10000 nM; read-out: Percent Control
LRRK2 = LRRK2 (Homo sapiens (Human), UniProt Q5S007); assay: KINOMEscan; assay type: binding; settings: LRRK2, 10000 nM; read-out: Percent Control
DYRK2 = DYRK2 (Homo sapiens (Human), UniProt Q92630); assay: KINOMEscan; assay type: binding; settings: DYRK2, 10000 nM; read-out: Percent Control
ASK2 = ASK2 (Homo sapiens (Human), UniProt O95382); assay: KINOMEscan; assay type: binding; settings: ASK2, 10000 nM; read-out: Percent Control
FGFR4 = FGFR4 (Homo sapiens (Human), UniProt P22455); assay: KINOMEscan; assay type: binding; settings: FGFR4, 10000 nM; read-out: Percent Control
CDKL1 = CDKL1 (Homo sapiens (Human), UniProt Q00532); assay: KINOMEscan; assay type: binding; settings: CDKL1, 10000 nM; read-out: Percent Control
CDK4-cyclinD1 = CDK4-cyclinD1 (Homo sapiens (Human), UniProt P11802); assay: KINOMEscan; assay type: binding; settings: CDK4-cyclinD1, 10000 nM; read-out: Percent Control
[2] = target: (Homo sapiens (Human), UniProt P57078); assay: KINOMEscan; assay type: binding; settings: read-out: Percent Control
NEK5 = NEK5 (Homo sapiens (Human), UniProt Q6P3R8); assay: KINOMEscan; assay type: binding; settings: NEK5, 10000 nM; read-out: Percent Control
[3] = enzymatic, Z′-LYTE, read-out: FAK IC50

PTK2 (FAK), sequence (Q05397 whole entry): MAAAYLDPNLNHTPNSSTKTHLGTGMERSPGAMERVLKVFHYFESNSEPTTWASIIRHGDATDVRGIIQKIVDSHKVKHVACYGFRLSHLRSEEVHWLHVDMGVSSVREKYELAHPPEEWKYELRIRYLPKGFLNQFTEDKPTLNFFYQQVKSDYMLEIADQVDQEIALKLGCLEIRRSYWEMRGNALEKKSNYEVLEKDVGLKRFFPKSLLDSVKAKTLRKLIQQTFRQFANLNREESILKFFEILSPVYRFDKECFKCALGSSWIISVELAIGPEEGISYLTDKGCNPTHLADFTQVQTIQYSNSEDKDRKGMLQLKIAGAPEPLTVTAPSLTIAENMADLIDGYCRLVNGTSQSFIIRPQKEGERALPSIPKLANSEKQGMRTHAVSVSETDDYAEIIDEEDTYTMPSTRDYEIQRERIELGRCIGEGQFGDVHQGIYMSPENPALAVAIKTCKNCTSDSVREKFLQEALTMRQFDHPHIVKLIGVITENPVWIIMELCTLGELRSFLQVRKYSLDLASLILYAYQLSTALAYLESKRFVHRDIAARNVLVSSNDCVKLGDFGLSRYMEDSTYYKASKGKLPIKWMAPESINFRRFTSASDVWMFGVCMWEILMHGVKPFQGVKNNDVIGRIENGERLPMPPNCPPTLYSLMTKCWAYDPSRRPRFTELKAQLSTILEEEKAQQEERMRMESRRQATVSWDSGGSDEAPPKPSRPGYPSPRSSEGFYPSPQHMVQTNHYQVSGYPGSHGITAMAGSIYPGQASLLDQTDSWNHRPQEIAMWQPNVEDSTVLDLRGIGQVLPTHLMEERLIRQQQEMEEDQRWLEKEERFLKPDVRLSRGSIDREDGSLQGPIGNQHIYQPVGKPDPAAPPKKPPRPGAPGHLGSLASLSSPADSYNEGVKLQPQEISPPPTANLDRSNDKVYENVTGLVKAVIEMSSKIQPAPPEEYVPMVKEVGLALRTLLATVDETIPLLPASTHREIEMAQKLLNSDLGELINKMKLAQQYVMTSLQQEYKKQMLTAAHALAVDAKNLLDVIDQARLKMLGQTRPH
MEK4, sequence (P45985 whole entry): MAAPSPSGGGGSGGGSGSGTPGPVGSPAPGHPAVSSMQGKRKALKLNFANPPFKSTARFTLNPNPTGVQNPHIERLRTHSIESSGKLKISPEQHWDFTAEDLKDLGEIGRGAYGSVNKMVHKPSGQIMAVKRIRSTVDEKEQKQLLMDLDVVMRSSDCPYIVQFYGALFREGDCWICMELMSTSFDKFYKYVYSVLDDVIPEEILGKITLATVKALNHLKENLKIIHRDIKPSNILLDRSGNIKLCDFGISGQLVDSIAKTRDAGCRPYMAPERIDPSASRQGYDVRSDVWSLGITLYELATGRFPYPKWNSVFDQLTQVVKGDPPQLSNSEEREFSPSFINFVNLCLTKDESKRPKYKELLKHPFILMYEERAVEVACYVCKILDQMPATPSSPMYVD
CDK4-cyclinD1, sequence (P11802 whole entry): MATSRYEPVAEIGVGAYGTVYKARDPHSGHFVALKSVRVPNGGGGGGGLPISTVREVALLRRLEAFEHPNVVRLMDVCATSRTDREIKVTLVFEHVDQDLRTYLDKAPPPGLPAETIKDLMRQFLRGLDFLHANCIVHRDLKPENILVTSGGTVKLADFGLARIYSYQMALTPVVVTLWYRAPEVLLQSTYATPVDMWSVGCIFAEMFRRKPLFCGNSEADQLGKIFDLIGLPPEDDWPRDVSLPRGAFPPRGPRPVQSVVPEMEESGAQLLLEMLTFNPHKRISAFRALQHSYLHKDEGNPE
CDK4-cyclinD1, sequence (P24385 whole entry partner): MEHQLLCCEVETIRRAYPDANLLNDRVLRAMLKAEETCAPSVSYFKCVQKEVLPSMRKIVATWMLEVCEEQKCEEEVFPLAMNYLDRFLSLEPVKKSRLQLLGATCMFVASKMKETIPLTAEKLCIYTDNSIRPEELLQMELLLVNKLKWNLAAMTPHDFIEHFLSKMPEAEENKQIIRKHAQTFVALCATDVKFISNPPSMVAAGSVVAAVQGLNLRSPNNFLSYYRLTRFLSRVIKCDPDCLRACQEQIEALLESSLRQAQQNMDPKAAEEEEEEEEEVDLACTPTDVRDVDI
RSK1(Kin.Dom.1-N-terminal), sequence (Q15418 62-321): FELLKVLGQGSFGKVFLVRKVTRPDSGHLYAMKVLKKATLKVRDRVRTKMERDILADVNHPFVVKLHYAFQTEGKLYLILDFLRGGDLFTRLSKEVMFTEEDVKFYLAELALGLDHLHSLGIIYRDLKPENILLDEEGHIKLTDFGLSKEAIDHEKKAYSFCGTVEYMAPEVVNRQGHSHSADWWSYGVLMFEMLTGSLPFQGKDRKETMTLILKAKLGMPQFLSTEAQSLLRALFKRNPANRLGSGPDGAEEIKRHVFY
CAMK4, sequence (Q16566 whole entry): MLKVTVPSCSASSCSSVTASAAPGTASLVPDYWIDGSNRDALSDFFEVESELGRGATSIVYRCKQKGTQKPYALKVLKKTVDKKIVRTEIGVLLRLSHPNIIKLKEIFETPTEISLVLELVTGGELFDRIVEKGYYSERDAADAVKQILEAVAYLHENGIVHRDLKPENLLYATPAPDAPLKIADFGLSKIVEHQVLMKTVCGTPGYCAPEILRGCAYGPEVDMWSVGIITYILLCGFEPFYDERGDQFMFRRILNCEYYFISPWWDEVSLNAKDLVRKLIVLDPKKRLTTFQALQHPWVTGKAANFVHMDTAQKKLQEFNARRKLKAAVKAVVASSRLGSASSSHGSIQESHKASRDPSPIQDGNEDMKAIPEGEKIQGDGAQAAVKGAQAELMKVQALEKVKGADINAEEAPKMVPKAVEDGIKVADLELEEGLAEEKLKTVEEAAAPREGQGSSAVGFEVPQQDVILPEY
PCTK3, sequence (Q07002 whole entry): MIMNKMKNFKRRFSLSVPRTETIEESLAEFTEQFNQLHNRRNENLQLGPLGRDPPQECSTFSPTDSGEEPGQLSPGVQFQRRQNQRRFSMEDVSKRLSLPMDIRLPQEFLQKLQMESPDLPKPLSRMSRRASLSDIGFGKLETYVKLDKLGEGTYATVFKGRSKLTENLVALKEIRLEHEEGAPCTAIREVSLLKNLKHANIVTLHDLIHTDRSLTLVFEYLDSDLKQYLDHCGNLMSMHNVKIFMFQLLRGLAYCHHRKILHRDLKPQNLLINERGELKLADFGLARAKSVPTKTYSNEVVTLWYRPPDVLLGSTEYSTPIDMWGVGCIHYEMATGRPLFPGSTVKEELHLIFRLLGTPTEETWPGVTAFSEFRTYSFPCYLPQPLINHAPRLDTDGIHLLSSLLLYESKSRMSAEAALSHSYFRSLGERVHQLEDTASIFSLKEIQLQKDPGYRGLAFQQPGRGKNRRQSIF
DYRK2, sequence (Q92630 whole entry): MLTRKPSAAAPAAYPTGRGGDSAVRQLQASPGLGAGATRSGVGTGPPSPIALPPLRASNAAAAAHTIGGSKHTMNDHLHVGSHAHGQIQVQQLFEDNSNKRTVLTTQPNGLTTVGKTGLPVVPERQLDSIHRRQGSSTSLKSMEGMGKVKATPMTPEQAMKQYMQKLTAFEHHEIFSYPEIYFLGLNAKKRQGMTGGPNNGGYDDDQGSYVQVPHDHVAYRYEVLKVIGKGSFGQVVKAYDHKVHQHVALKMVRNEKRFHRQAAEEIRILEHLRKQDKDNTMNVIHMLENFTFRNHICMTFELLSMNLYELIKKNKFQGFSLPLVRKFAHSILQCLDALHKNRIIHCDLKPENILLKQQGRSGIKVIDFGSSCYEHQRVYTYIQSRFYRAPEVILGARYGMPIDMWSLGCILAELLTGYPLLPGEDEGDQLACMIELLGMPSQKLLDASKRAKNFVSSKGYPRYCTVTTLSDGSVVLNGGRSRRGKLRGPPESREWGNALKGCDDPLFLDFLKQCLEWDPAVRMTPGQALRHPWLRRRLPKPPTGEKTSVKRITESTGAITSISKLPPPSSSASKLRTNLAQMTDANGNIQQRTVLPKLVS
NEK5, sequence (Q6P3R8 whole entry): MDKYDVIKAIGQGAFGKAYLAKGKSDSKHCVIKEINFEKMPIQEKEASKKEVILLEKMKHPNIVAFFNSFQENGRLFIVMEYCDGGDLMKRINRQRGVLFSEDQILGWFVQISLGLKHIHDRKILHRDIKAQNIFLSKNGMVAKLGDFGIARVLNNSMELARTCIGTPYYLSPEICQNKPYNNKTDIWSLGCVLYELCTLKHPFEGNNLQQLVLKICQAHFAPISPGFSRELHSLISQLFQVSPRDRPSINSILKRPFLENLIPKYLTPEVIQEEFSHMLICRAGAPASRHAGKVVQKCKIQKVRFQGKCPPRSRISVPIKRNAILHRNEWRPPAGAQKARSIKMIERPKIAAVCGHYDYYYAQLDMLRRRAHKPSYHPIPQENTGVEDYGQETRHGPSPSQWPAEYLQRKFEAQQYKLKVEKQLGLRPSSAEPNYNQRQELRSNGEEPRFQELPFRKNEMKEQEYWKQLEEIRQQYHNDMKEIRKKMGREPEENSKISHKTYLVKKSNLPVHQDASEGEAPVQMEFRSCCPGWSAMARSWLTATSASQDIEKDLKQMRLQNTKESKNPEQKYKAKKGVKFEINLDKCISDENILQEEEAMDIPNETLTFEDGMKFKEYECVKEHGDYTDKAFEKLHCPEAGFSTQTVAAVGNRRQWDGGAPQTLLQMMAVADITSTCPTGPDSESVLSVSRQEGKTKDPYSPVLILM
CDKL1, sequence (Q00532 whole entry): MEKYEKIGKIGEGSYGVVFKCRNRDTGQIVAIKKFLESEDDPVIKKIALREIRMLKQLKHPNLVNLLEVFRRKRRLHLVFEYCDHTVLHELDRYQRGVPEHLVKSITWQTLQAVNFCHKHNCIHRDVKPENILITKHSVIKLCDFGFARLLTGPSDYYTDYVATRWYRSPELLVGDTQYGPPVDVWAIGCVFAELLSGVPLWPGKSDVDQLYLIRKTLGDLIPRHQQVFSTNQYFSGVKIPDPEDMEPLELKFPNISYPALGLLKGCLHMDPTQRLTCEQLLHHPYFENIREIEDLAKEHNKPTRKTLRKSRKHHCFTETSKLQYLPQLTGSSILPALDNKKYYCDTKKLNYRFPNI

| Structure (SMILES) | remaining binding at 10 µM (IRAK3) | remaining binding at 10 µM (MEK4) | remaining binding at 10 µM (PKAC-alpha) | remaining binding at 10 µM (DYRK1B) | remaining binding at 10 µM (ERK3) | remaining binding at 10 µM (MET) | remaining binding at 10 µM [1] | remaining binding at 10 µM (ACVR2A) | IC50 (PTK2 (FAK); [3]) | remaining binding at 10 µM (PRKCQ) | remaining binding at 10 µM (DDR1) | remaining binding at 10 µM (SGK) | remaining binding at 10 µM (PDPK1) | remaining binding at 10 µM (CAMKK1) | remaining binding at 10 µM (PCTK3) | remaining binding at 10 µM (PKN1) | remaining binding at 10 µM (CAMK4) | remaining binding at 10 µM (LRRK2) | remaining binding at 10 µM (DYRK2) | remaining binding at 10 µM (ASK2) | also measured |
| --- | --- | --- | --- | --- | --- | --- | --- | --- | --- | --- | --- | --- | --- | --- | --- | --- | --- | --- | --- | --- | --- |
| COc1cc(N2CCC(N3CCN(C)CC3)CC2)ccc1Nc1ncc2c(n1)N(C)c1sc(C)nc1C(=O)N2 [Compound 3, 6-((2-methoxy-4-(4-(4-methylpiperazin-1-yl)piperidin-1-yl)phenyl)amino)-2,4-dimethyl-4,9-dihydro-10H-pyrimido[5,4-b]thiazolo[5,4-e][1,4]diazepin-10-one] | 80% | 100% | 72% | 69% | 89% | 92% | 78% | 76% | 0.062 µM and 0.0622 µM | 89% | 89% | 100% | 76% | 84% | 90% | 69% | 98% | 98% | 100% | 100% | remaining binding at 10 µM (FGFR4): 90%; remaining binding at 10 µM (CDKL1): 72%; remaining binding at 10 µM (CDK4-cyclinD1): 100%; remaining binding at 10 µM ([2]; PIPK4, 10000 nM): 100%; remaining binding at 10 µM (NEK5): 97% |
| COc1cc(N2CCC(N3CCN(C)CC3)CC2)ccc1Nc1ncc2c(n1)N(C)c1sc(C)nc1C(=O)N2C [Compound 5, 6-((2-methoxy-4-(4-(4-methylpiperazin-1-yl)piperidin-1-yl)phenyl)amino)-2,4,9-trimethyl-4,9-dihydro-10H-pyrimido[5,4-b]thiazolo[5,4-e][1,4]diazepin-10-one] | 99% | 100% | 100% | 87% | 100% | 97% | 83% | 97% | 0.0183 µM | 88% | 100% | 100% | 96% | 100% | 98% | 100% | 100% | 32% | 100% | 100% | IC50 (PTK2 (FAK); FAK, Invitrogen, read-out: Biochemical IC50): 0.0202 ± 0.0019 µM; remaining binding at 10 µM (FGFR4): 88%; remaining binding at 10 µM (CDKL1): 80%; remaining binding at 10 µM (CDK4-cyclinD1): 90%; remaining binding at 10 µM ([2]; RIPK4, 10000 nM): 100%; remaining binding at 10 µM (NEK5): 100% |
